Patent publication US20240246941A1, “SUBSTITUTED 4-(3-AMINOPROP-1-YL)AMINOQUINOLINE ANALOGS AS MODULATORS OF MELANOMA-ASSOCIATED ANTIGEN 11 UBIQUITIN LIGASE” (ST. JUDE CHILDREN'S RESEARCH HOSPITAL, INC., priority 2020, published 2024)

These compounds were tested against MAGE-A11:PCF11 (Homo sapiens (Human), UniProt P43364) (assay: TR-FRET single point screening at 15 μM). Details: single point TR-FRET screening at 15 μM against MAGE-A11:PCF11.
Assay type: binding
Parameters: unit not given here
How it was run: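 Single-point screen at 15 μM (0.25% DMSO) measuring disruption of GST-MAGEA11 (5 nM) binding to FAM-PCF11_4 peptide (200 nM) detected by Tb-anti-GST (5 nM). Buffer 50 mM Tris pH 7.5, 20 mM MgCl2, 0.1 mg/ml BSA, 1 mM DTT; 90 min at ~25 °C; 520/490 nm ratio converted to % inhibition versus controls.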

Sequence of MAGE-A11:PCF11 (P43364 218-429): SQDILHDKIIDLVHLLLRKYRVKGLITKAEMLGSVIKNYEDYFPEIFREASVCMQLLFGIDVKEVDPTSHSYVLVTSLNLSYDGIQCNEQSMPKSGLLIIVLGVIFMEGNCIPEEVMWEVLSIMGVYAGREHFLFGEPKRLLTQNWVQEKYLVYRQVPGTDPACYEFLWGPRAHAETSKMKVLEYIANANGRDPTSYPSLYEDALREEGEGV

First: COc1ccc2nc3cc(Cl)ccc3c(NCCCNCc3cc(C(F)(F)F)ccc3OC)c2c1 [SJ000521002]
Second: COc1ccc2nc3cc(Cl)ccc3c(NCCCNCc3ccc(C)o3)c2c1 [SJ000361089]
The TR-FRET signal of the first is lower: −290.2 for the first, −229 for the second.

Compared with `CN(C)c1cc(NC(=O)CNC(C)(C)CC(C)(C)C)c2ccccc2n1` [SJ000111678], `CCCN(CCCNc1c2ccc(Cl)cc2nc2ccc(OC)cc12)Cc1cn(C(C)=O)c2ccccc12` [SJ000522736] is lower in TR-FRET signal: 10.62 for the first, −192.4 for the second.

Compared with `Fc1cccc(CN(CCCCNc2ccnc3cc(Cl)ccc23)Cc2ccccc2)c1` [SJ000361199], `FC(F)(F)c1ccccc1CN(CCCCNc1ccnc2cc(Cl)ccc12)Cc1ccccc1` [SJ000361192] is lower in TR-FRET signal: 28.34 for the first, 27.82 for the second.

Going from `CCOC(=O)c1cnc2ccc(Cl)cc2c1N1CCN(C)CC1` [SJ000187322] to `COc1ccc2ncc(C(=O)c3ccccc3)c(N3CCN(C)CC3)c2c1` [SJ000247245], the TR-FRET signal falls from −0.9277 to −2.393.

First: Clc1ccc2c(NC3CCN(CC4CC4)CC3)ccnc2c1 [SJ000357481]
Second: COc1cc2ncc(S(=O)(=O)c3ccc(Cl)cc3)c(N3CCN(C)CC3)c2cc1OC [SJ000083953]
The TR-FRET signal of the first is lower: 3.973 for the first, 4.674 for the second.

Compared with `C=CCOCC(O)CN1CCN(c2cc(C(F)(F)F)nc3ccccc23)CC1` (stereo not drawn) [SJ000228017], `COc1ccc2ncc(S(=O)(=O)c3ccc(C)c(C)c3)c(N3CCN(C)CC3)c2c1` [SJ000247333] is lower in TR-FRET signal: −2.128 for the first, −8.554 for the second.

Compared with `COc1ccc2nc3cc(Cl)ccc3c(NCCCNCc3ccc4[nH]ccc4c3)c2c1` [SJ000520914], `COc1ccc2nc3cc(Cl)ccc3c(NCCCNCc3cccnc3)c2c1` [SJ000520986] is lower in TR-FRET signal: −184.2 for the first, −409 for the second.

Compared with `CCOC(=O)c1cnc2ccc(OCC)cc2c1NCCN1CCOCC1` [SJ000027289], `CCCN(CCCNc1c2ccc(Cl)cc2nc2ccc(OC)cc12)Cc1ccccc1C(=O)O` [SJ000520951] is lower in TR-FRET signal: 5.291 for the first, −258.6 for the second.

First: O=S(=O)(c1ccc(F)cc1)c1cnc2ccc(Cl)cc2c1N1CCN(c2ccc(F)cc2)CC1 [SJ000117063]
Second: CCCN(CCCNc1c2ccc(Cl)cc2nc2ccc(OC)cc12)CCOCc1ccccc1 [SJ000522981]
The TR-FRET signal of the first is higher: −4.205 for the first, −212.4 for the second.

Same assay, conditions: single point TR-FRET screening of quinoline compounds against MAGE-A11:PCF11; 15 μM

First: CCOC(=O)c1cnc2ccc(Br)cc2c1NCCCN1CCOCC1 [SJ000176507]
Second: CCOC(=O)c1cnc2c(Cl)cccc2c1NCCCN1CCOCC1 [SJ000279431]
The TR-FRET signal of the first is lower: −22 for the first, 4.102 for the second.

First: CCCN(CCCNc1c2ccc(Cl)cc2nc2ccc(OC)cc12)Cc1c(F)c(F)c(F)c(F)c1F [SJ000522734]
Second: CCCN(CCCNc1c2ccc(Cl)cc2nc2ccc(OC)cc12)Cc1ccccc1C(F)(F)F [SJ000520928]
The TR-FRET signal of the first is lower: −2.258 for the first, 14.17 for the second.

Going from `COc1ccc(F)cc1CN(CCCNc1ccnc2cc(Cl)ccc12)Cc1ccccc1` [SJ000357495] to `Clc1ccc2c(NCCCN(Cc3ccccc3)Cc3ccccc3)ccnc2c1` [SJ000361166], the TR-FRET signal rises from 6.683 to 14.76.

First: Cc1ccsc1CNCCCNc1ccnc2cc(Cl)ccc12 [SJ000311189]
Second: CCCN(CCCNc1ccnc2cc(Cl)ccc12)Cc1ccsc1 [SJ000522744]
The TR-FRET signal of the first is lower: 6.554 for the first, 7.824 for the second.

First: CCC(CC)CN(CCCNc1ccnc2cc(Cl)ccc12)Cc1ccccc1 [SJ000361172]
Second: CCCN(CCCNc1ccnc2cc(C(F)(F)F)ccc12)Cc1ccc(OC)cc1 [SJ000361273]
The TR-FRET signal of the first is higher: 22.91 for the first, 22.9 for the second.

Compared with `COc1ccccc1Oc1ccc2c(NCCCNCc3ccco3)ccnc2c1` [SJ000311210], `Cc1cc(C)cc(Cc2ccc3c(NCCCNCc4ccco4)ccnc3c2)c1` [SJ000311318] is higher in TR-FRET signal: 24.56 for the first, 39.31 for the second.

Compared with `CCOC(=O)c1cnc2c(C)cc(C)cc2c1NCCCN(C)C` [SJ000037397], `CCCN(CCCNc1ccnc2cc(C(F)(F)F)ccc12)Cc1cc(OC)ccc1F` [SJ000520480] is lower in TR-FRET signal: 14.93 for the first, 11.96 for the second.

In the case of `FC(F)(F)c1ccc2c(NCCCNCC3CCOC3)ccnc2c1` (stereo not drawn) [SJ000521065], the TR-FRET signal was 15.56.
